Tests used:
H14 cells = assay: In vitro assay of uptake of [14C]-alanine; format: cell-based, hamster; settings: Mesocricetus auratus; 10 μM
Outline: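 H14 cells (BHK expressing human IBAT) incubated 2 h at 37 °C with compound and labelled alanine, in the same format as the 3 μM [14C]-taurocholate uptake assay, in DMEM with 0.2% fatty acid-free BSA. After cold PBS washes, cell-associated radioactivity measured by scintillation counting.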

[1] = tested on: Rat Ileal Uptake of [14C]-Taurocholate; assay: In vivo assay of rat ileal uptake of [14C]-taurocholate into bile (ileal loop)
Protocol: In Vivo Assay of Compounds that Inhibit Rat Ileal Uptake of [^14C]-Taurocholate into Bile
(See “Metabolism of 3α,7β-dihydroxy-7α-methyl-5β-cholanoic acid and 3α,7β-dihydroxy-7α-methyl-5β-cholanoic acid in hamsters” in Biochimica et Biophysica Acta 833 (1985) 196-202 by Une et al.)
Male wistar rats (200-300 g) are anesthetized with inactin @100 mg/kg. Bile ducts are cannulated with a 10″ length of PE10 tubing. The small intestine is exposed and laid out on a gauze pad. A canulae (⅛″ luer lock, tapered female adapter) is inserted at 12 cm from the junction of the small intestine and the cecum. A slit is cut at 4 cm from this same junction (utilizing a 8 cm length of ileum). 20 ml of warm Dulbecco's phosphate buffered saline, pH 6.5 (PBS) is used to flush out the intestine segment. The distal opening is cannulated with a 20 cm length of silicone tubing (0.02″ I.D.×0.037″ O.D.). The proximal cannulae is hooked up to a peristaltic pump and the intestine is washed for 20 min with warm PBS at 0.25 ml/min. Temperature of the gut segment is monitored continuously. At the start of the experiment, 2.0 ml of control sample ([^14C]-taurocholate @ 0.05 mi/ml with 5 mM cold taurocholate) is loaded into the gut segment with a 3 ml syringe and bile sample collection is begun. Control sample is infused at a rate of 0.25 ml/min for 21 min. Bile samples fractions are collected every 3 minute for the first 27 minutes of the procedure. After the 21 min of sample infusion, the ileal loop is washed out with 20 ml of warm PBS (using a 30 ml syringe), and then the loop is washed out for 21 min with warm PBS at 0.25 ml/min. A second perfusion is initiated as described above but this with test compound being administered as well (21 min administration followed by 21 min of wash out) and bile sampled every 3 min for the first 27 min. If necessary, a third perfusion is performed as above that typically contains the control sample.

Hepatic Cholesterol [2] = assay: Hepatic cholesterol concentration, cholesterol-fed hamsters; format: in vivo, hamster; settings: 0.2% Cpd. No. 25, mean (SEM)
Protocol: (§1) Measurement of Hepatic Cholesterol Concentration (Hepatic CHOL)
(§2) Liver tissue was weighed and homogenized in chloroform:methanol (2:1). After homogenization and centrifugation the supernatant was separated and dried under nitrogen. The residue was dissolved in isopropanol and the cholesterol content was measured enzymatically, using a combination of cholesterol oxidase and peroxidase, as described by Allain, C. A., et al. (1974) Clin. Chem. 20, 470.

[3] = tested on: Hepatic HMG CoA-Reductase; assay: Hepatic HMG CoA-reductase activity, cholesterol-fed hamsters; format: in vivo, hamster; settings: 0.2% Cpd. No. 25, mean (SEM)
Protocol: Measurement of Hepatic HMG CoA-Reductase Activity (HMG COA)
Hepatic microsomes were prepared by homogenizing liver samples in a phosphate/sucrose buffer, followed by centrifugal separation. The final pelleted material was resuspended in buffer and an aliquot was assayed for HMG CoA reductase activity by incubating for 60 minutes at 37° C. in the presence of ^14C-HMG-CoA (Dupont-NEN). The reaction was stopped by adding 6N HCl followed by centrifugation. An aliquot of the supernatant was separated, by thin-layer chromatography, and the spot corresponding to the enzyme product was scraped off the plate, extracted and radioactivity was determined by scintillation counting. (Reference: Akerlund, J. and Bjorkhem, I. (1990) J. Lipid Res. 31, 2159).

[4] = tested on: Hepatic Cholesterol 7-α-Hydroxylase; assay: Hepatic cholesterol 7-α-hydroxylase activity, cholesterol-fed hamsters; format: in vivo, hamster; settings: 0.2% Cpd. No. 25, mean (SEM)
Protocol: (§3) Measurement of Hepatic Cholesterol 7-α-Hydroxylase Activity (7a-OHase)
(§4) Hepatic microsomes were prepared by homogenizing liver samples in a phosphate/sucrose buffer, followed by centrifugal separation. The final pelleted material was resuspended in buffer and an aliquot was assayed for cholesterol 7-α-hydroxylase activity by incubating for 5 minutes at 37° C. in the presence of NADPH. Following extraction into petroleum ether, the organic solvent was evaporated and the residue was dissolved in acetonitrile/methanol. The enzymatic product was separated by injecting an aliquot of the extract onto a C18 reversed phase HPLC column and quantitating the eluted material using UV detection at 240 nm. (Reference: Horton, J. D., et al. (1994) J. Clin. Invest. 93, 2084).

Fecal Bile Acid [5] = assay: Fecal bile acid concentration (FBA), cholesterol-fed hamsters; format: in vivo, hamster; settings: 0.2% Cpd. No. 25, mean (SEM)
Protocol: (§5) Measurement of Fecal Bile Acid Concentration (FBA)
(§6) Total fecal output from individually housed hamsters was collected for 24 or 48 hours, dried under a stream of nitrogen, pulverized and weighed. Approximately 0.1 gram was weighed out and extracted into an organic solvent (butanol/water). Following separation and drying, the residue was dissolved in methanol and the amount of bile acid present was measured enzymatically using the 3α-hydroxysteroid steroid dehydrogenase reaction with bile acids to reduce NAD. (Reference: Mashige, F., et al. (1981) Clin. Chem. 27, 1352).

[6] = Rat Alzet minipump model: body, liver and fecal weight; format: in vivo; settings: 20 MPL/DAY, mean (SEM)
Hepatic Cholesterol [7] = assay: Hepatic cholesterol concentration, rat Alzet minipump model; format: in vivo; settings: 20 MPL/DAY, mean (SEM)
Protocol: as §1, §2

[8] = tested on: Hepatic Cholesterol 7-α-Hydroxylase; assay: Hepatic cholesterol 7-α-hydroxylase activity, rat Alzet minipump model; format: in vivo; settings: 20 MPL/DAY, mean (SEM)
Protocol: as §3, §4

Fecal Bile Acid [9] = assay: Fecal bile acid concentration (FBA), rat Alzet minipump model; format: in vivo; settings: 20 MPL/DAY, mean (SEM)
Protocol: as §5, §6

EC50 ([1]; rat ileal loop, read-out: TC-uptake Ileal Loop EC(50)): 20 µM | LIVER WEIGHT (G) [6]: 14.6 (0.4) G | WEIGHT (G) day 1 [6]: 307 (3) G | WEIGHT (G) day 8 [6]: 310 (4) *A, B G
Structure (SMILES): CCCC[C@]1(CC)CS(=O)(=O)c2cc(OC)ccc2[C@@H](c2ccccc2)[C@H]1O [Example 25, (3α,4β,5β) 3-Butyl-3-ethyl-4-hydroxy-8-methoxy-5-phenyl-2,3,4,5-tetrahydrobenzothiepine-1,1-dioxide]
inhibition at 10 µM (H14 cells): 4% | activity at 100 µM ([1]; Rattus norvegicus, read-out: % of Control Transport of TC in Rat Ileum @ 0.1 mM): 26% | HEPATIC CHOL (mg/g) (Hepatic Cholesterol [2]): 1.9 (0.1) mg/g | HMG COA (pm/mg/min.) [3]: 312.9 (37.5) pm/mg/min. | 7a-OHase (pm/mg/min.) [4]: 291.0 (6.0) *A pm/mg/min. | FBA (mM/24 H/100 g) (Fecal Bile Acid [5]): 11.9 (0.5) mM/24 H/100 g | HEPATIC CHOL (mg/g) (Hepatic Cholesterol [7]): 2.0 (0.03) mg/g | 7a-OHase (pm/mg/min) [8]: 535.2 (35.7) *A, B pm/mg/min | FBA (mM/24 H/100 g) (Fecal Bile Acid [9]): 39.1 (4.5) *A, B mM/24 H/100 g

— patent publication US6784201B2, “Benzothiepines having activity as inhibitors of ileal bile acid transport and taurocholate uptake” (G.D. Searle & Company, priority 1994, dated 2004)
